One compound from publication PMC10947113, “A Bivalent Activatable Fluorescent Probe for Screening and Intravital Imaging of Chemotherapy‐Induced Cancer Cell Death” (Angewandte Chemie (Weinheim an Der Bergstrasse, Germany), 2021) can be followed below.

Starred links: 1 amine or outer side, 2 acyl side, 3 side chain; linkers in the order of their positions; H or OH if unused. Non-standard residues stand in square brackets, D forms with d. Residues, ends and D or L forms follow the SMILES beside them. X1 = CC1=CC(C)=[N+]2C1=C(c1cccc(-c3[nH]c4ccccc4c3C[C@H](N[*:1])C(=O)[*:2])c1)c1ccc(-c3ccc(C)s3)n1[B-]2(F)F

The subject of one data set is MDA-MB-231 cells. Description: Cell viability, TACS MTT cell proliferation assay, MDA-MB-231. The format is cell-based, human. The settings on record: different working concentrations, 3 h, means ± SD (n=5), ns for p>0.05. As to the method: (§1) Figure S15. Cell viability experiments (TACS® MTT cell proliferation assay) after incubation of Apotracker Red in breast cancer cell lines (a: MCF7 cells, b: MDA-MB-231 cells) at different concentrations for 3 h. Data presented as means ± SD (n=5). P values obtained from one- way ANOVA using multiple comparisons (ns for p>0.05).
(§2) Figure S16. Quantification of E GFP+ macrophages in tumours from untreated and cisplatin-treated mice by time- lapse imaging on a spinning disk confocal microscope (λexc: 488 nm). Data presented as means ± SD of 8 random areas in 2- 3 mice per group (untreated or treated with 10 μg g-1 cisplatin for 72 h). […]

A further data set concerns MCF7 cells. Description: Cell viability, TACS MTT cell proliferation assay, MCF7. In kind it is cell-based, human. Conditions: different working concentrations, 3 h, means ± SD (n=5), ns for p>0.05. As to the method:
as §1, §2
On the technique in general: Tetrazolium assays rely on reduction of a dye to a coloured formazan, in cell work by metabolically active cells.

A short description of data set [1]: Stability analysis in mouse serum. The format is in vitro ADME. Conditions: 24 h, 37 °C, 500 rpm shaker, 50 μM (method) or 25 μM (Figure S14), CH3CN protein precipitation, HPLC traces and fluorescence emission (exc 520 nm). As to the method: Figure S14. Stability analysis of Apotracker Red in mouse serum. HPLC traces of Apotracker Red (25 μM) after incubation in PBS buffer or mouse serum for 24 h at 37 °C . […]
fluorescence emission of Apotracker Red before and after incubation in mouse serum and […]
(1 picture or pasted object on this page, not shown here) […]
r.t., followed by separation from erythrocytes by centrifugation for 10 min, 2, 000 g at r.t. Sera were transferred into new tubes and stored at - 20°C until use. 50 μM Apotracker Red in PBS or in serum were incubated fo r 24 h at 37 °C on a vertical shaker at 500 rpm . A s control s, seru m without peptide and freshly aliquoted 50 μM Apotracker Red in mouse serum were used.
Fluorescence spectra were recorded after excitation at 520 nm. For HPLC measurements, proteins were precipitated by addition of CH3CN and centrifugation at 300 g fo r 5 m in a t r.t. and the resulting supernatants were injected.
Lipid layer assays . […] The limit of detection (LoD) of Apotracker Red for PtdSer was determined by fluorescence titration of serial dilutions of Pt dSer layers after incubation with Apotracker Red (1 μM, PBS) at 25 °C for 40 min. The LoD was calculated using the equation LoD = (3 × σ)/k, where σ is the standard deviation of blank solutions and k is the slope of the linear regression fit. Data was recorded on Cytation 3 (exc: 530 nm). […]

With `CC1=CC(C)=[N+]2C1=C(c1cccc(-c3[nH]c4ccccc4c3C[C@@H]3NC(=O)[C@H](Cc4ccccc4)NC(=O)[C@H](Cc4c[nH]c5ccccc45)NC(=O)[C@H](CCCCN)NC(=O)[C@H](CCCCN)NC(=O)[C@H](CCCNC(=N)N)NC(=O)CNC3=O)c1)c1ccc(-c3ccc(C)s3)n1[B-]2(F)F` [Apotracker Red] (cyclo(F[X1]GRKKW)), the “cell toxicity (MTT cell viability), MDA-MB-231” value with MDA-MB-231 cells is reported as “did not cause cell toxicity”. Besides, in the data set on MCF7 cells, the “cell toxicity (MTT cell viability), MCF7” value is given as “did not cause cell toxicity”. The “proteolytic stability in mouse serum” value in data set [1] is “good proteolytic stability for up to 24 h”.
